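Dose response: 5 concentrations. Exposure: 48 h. Format: 96-well plates. Endpoint: linear interpolation; highest concentration if not reached. GI50: concentration for 50% inhibition of growth. TGI: concentration producing complete growth inhibition.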
What was measured:
Test in all cases: inhibition of tumour cell growth, NCI panel, 48 h
786-0 renal = system: 786-0 renal
A498 renal = system: A498 renal
A549 NSCLC = system: A549 NSCLC
ACHN renal = system: ACHN renal
BT-549 breast = system: BT-549 breast
CAKI-1 renal = system: CAKI-1 renal
CCRF-CEM leukemia = system: CCRF-CEM leukemia
COLO 205 colon = system: COLO 205 colon
DU-145 prostate = system: DU-145 prostate
EKVX NSCLC = system: EKVX NSCLC
HCC-2998 colon = system: HCC-2998 colon
HCT-116 colon = system: HCT-116 colon
HCT-15 colon = system: HCT-15 colon
HL-60(TB) leukemia = system: HL-60(TB) leukemia
HOP-62 NSCLC = system: HOP-62 NSCLC
HOP-92 NSCLC = system: HOP-92 NSCLC
HS 578T breast = system: HS 578T breast
HT29 colon = system: HT29 colon
IGROV1 ovarian = system: IGROV1 ovarian
K-562 leukemia = system: K-562 leukemia
KM12 colon = system: KM12 colon
LOX IMVI melanoma = system: LOX IMVI melanoma
M14 melanoma = system: M14 melanoma
MALME-3M melanoma = system: MALME-3M melanoma
MCF7 breast = system: MCF7 breast
MDA-MB-231 breast = system: MDA-MB-231 breast
MDA-MB-435 = system: MDA-MB-435
MDA-MB-468 breast = system: MDA-MB-468 breast
MOLT-4 leukemia = system: MOLT-4 leukemia
NCI-H226 lung = system: NCI-H226 lung
NCI-H23 lung = system: NCI-H23 lung
NCI-H460 lung = system: NCI-H460 lung
NCI-H522 lung = system: NCI-H522 lung
NCI/ADR-RES ovarian = system: NCI/ADR-RES ovarian
OVCAR-3 ovarian = system: OVCAR-3 ovarian
OVCAR-4 ovarian = system: OVCAR-4 ovarian
OVCAR-5 ovarian = system: OVCAR-5 ovarian
OVCAR-8 ovarian = system: OVCAR-8 ovarian
PC-3 prostate = system: PC-3 prostate
RPMI-8226 leukemia = system: RPMI-8226 leukemia
RXF 393 renal = system: RXF 393 renal
SF-268 CNS = system: SF-268 CNS
SF-295 CNS = system: SF-295 CNS
SF-539 CNS = system: SF-539 CNS
SK-MEL-2 melanoma = system: SK-MEL-2 melanoma
SK-MEL-28 melanoma = system: SK-MEL-28 melanoma
SK-MEL-5 melanoma = system: SK-MEL-5 melanoma
SK-OV-3 ovarian = system: SK-OV-3 ovarian
SN12C renal = system: SN12C renal
SNB-19 CNS = system: SNB-19 CNS
SNB-75 CNS = system: SNB-75 CNS
SR leukemia = system: SR leukemia
SW-620 colon = system: SW-620 colon
T-47D breast = system: T-47D breast
TK-10 renal = system: TK-10 renal
U251 CNS = system: U251 CNS
UACC-257 melanoma = system: UACC-257 melanoma
UACC-62 melanoma = system: UACC-62 melanoma
UO-31 renal = system: UO-31 renal

## O=C(CSc1nc2ccccc2c(=O)n1-c1ccc(Cl)cc1)Nc1ccc(-c2nc3ccc([N+](=O)[O-])cc3[nH]2)cc1
786-0 renal
  GI50: 2.91 µM
  TGI: 8.4 µM
A498 renal
  GI50: 3.23 µM
  TGI: 12.9 µM
A549 NSCLC
  GI50: 1.88 µM
  TGI: 6.81 µM
ACHN renal
  GI50: 3.1 µM
  TGI: 21.2 µM
BT-549 breast
  GI50: 1.84 µM
  TGI: 6.61 µM
CAKI-1 renal
  GI50: 12 µM
  TGI: > 100 µM
CCRF-CEM leukemia
  GI50: 13.5 µM
  TGI: > 100 µM
COLO 205 colon
  GI50: 2.34 µM
  TGI: 6.07 µM
DU-145 prostate
  GI50: 3.79 µM
  TGI: > 100 µM
EKVX NSCLC
  GI50: 1.91 µM
  TGI: 5.7 µM
HCC-2998 colon
  GI50: 2.95 µM
  TGI: 15.2 µM
HCT-116 colon
  GI50: 2.9 µM
  TGI: > 100 µM
HCT-15 colon
  GI50: 2.77 µM
  TGI: > 100 µM
HL-60(TB) leukemia
  GI50: 28.1 µM
  TGI: > 100 µM
HOP-62 NSCLC
  GI50: 1.26 µM
  TGI: 3 µM
HOP-92 NSCLC
  GI50: 1.75 µM
  TGI: 6.07 µM
HS 578T breast
  GI50: 1.6 µM
  TGI: 4.57 µM
HT29 colon
  GI50: 2.83 µM
  TGI: 11.4 µM
IGROV1 ovarian
  GI50: 1.87 µM
  TGI: 5 µM
K-562 leukemia
  GI50: 2.63 µM
  TGI: > 100 µM
KM12 colon
  GI50: 10.2 µM
  TGI: > 100 µM
LOX IMVI melanoma
  GI50: 1.44 µM
  TGI: 3.04 µM
M14 melanoma
  GI50: 2.32 µM
  TGI: 8.05 µM
MALME-3M melanoma
  GI50: 2.18 µM
  TGI: 7.44 µM
MCF7 breast
  GI50: 1.18 µM
  TGI: 5.09 µM
MDA-MB-231 breast
  GI50: 1.82 µM
  TGI: 4.62 µM
MDA-MB-435
  GI50: 2.98 µM
  TGI: 13.1 µM
MDA-MB-468 breast
  GI50: 1.4 µM
  TGI: 3.2 µM
MOLT-4 leukemia
  GI50: 3.21 µM
  TGI: > 100 µM
NCI-H226 lung
  GI50: 1.77 µM
  TGI: 4.04 µM
NCI-H23 lung
  GI50: 1.8 µM
  TGI: 5.36 µM
NCI-H460 lung
  GI50: 1.56 µM
  TGI: 3.9 µM
NCI-H522 lung
  GI50: 1.82 µM
  TGI: 4.65 µM
NCI/ADR-RES ovarian
  GI50: 5.29 µM
  TGI: > 100 µM
OVCAR-3 ovarian
  GI50: 2.53 µM
  TGI: 7.43 µM
OVCAR-4 ovarian
  GI50: 1.59 µM
  TGI: 5.11 µM
OVCAR-5 ovarian
  GI50: 2.65 µM
  TGI: 20.5 µM
OVCAR-8 ovarian
  GI50: 1.08 µM
  TGI: 2.75 µM
PC-3 prostate
  GI50: 1.79 µM
  TGI: 7.01 µM
RPMI-8226 leukemia
  GI50: 4.4 µM
  TGI: > 100 µM
RXF 393 renal
  GI50: 1.5 µM
  TGI: 3.69 µM
SF-268 CNS
  GI50: 4.62 µM
  TGI: > 100 µM
SF-295 CNS
  GI50: 1.73 µM
  TGI: 4.56 µM
SF-539 CNS
  GI50: 1.9 µM
  TGI: 4.06 µM
SK-MEL-2 melanoma
  GI50: 1.95 µM
  TGI: 5.31 µM
SK-MEL-28 melanoma
  GI50: 1.72 µM
  TGI: 3.87 µM
SK-MEL-5 melanoma
  GI50: 3.01 µM
  TGI: 11.7 µM
SK-OV-3 ovarian
  GI50: 2.82 µM
  TGI: 32.7 µM
SN12C renal
  GI50: 1.58 µM
  TGI: 4.21 µM
SNB-19 CNS
  GI50: 2.33 µM
  TGI: 8.77 µM
SNB-75 CNS
  GI50: 2.03 µM
  TGI: 8.21 µM
SR leukemia
  GI50: 2.16 µM
  TGI: 24.1 µM
SW-620 colon
  GI50: 3.52 µM
  TGI: 74.1 µM
T-47D breast
  GI50: 1.41 µM
  TGI: 3.56 µM
TK-10 renal
  GI50: 3.61 µM
  TGI: 20.5 µM
U251 CNS
  GI50: 1.59 µM
  TGI: 3.58 µM
UACC-257 melanoma
  GI50: 1.69 µM
  TGI: 4.95 µM
UACC-62 melanoma
  GI50: 1.76 µM
  TGI: 4.78 µM
UO-31 renal
  GI50: 30 µM
  TGI: > 100 µM
